Common to all, as to assay type: in vivo
For assay [1], the system named is Botrytis cinerea. The assay can be described thus: Assay B-7: Botrytis cinerea/grape (Botrytis on grapes). Conditions: Botrytis cinerea on grape seedlings cv. Gutedel; 0.02% active substance, spray. The method, then:
Assay B-7: Botrytis cinerea/Grape (Botrytis on Grapes) 5 week old grape seedlings cv. Gutedel are treated with the formulated testcompound (0.02% active substance) in a spray chamber. Two days after application grape plants are inoculated by spraying a spore suspension (1×10^6 conidia/ml) on the test plants. After an incubation period of 4 days at 21° C. and 95% r. h. in a greenhouse the disease incidence is assessed.

For assay [2], the system named is Botrytis cinerea. The assay can be described thus: Assay B-8: Effect against Botrytis cinerea/tomato (Botrytis on tomatoes). To be noted: Botrytis cinerea on tomato cv. Roter Gnom; 0.02% active substance, spray. As to the method:
Assay B-8: Effect Against Botrytis cinerea/Tomato (Botrytis on Tomatoes) 4 week old tomato plants cv. Roter Gnom are treated with the formulated testcompound 0.02% active substance) in a spray chamber. Two days after application tomato plants are inoculated by spraying a spore suspension (1×10^5 conidia/ml) on the test plants. After an incubation period of 4 days at 20° C. and 95% r. h. in a greenhouse the disease incidence is assessed.

Assay [3] has as its system Pyrenophora teres (Helminthosporium). The assay can be described thus: Assay B-10: Effect against Pyrenophora teres (Helminthosporium)/barley (net blotch on barley). Conditions: Pyrenophora teres on barley cv. Regina; 0.02% active substance, spray. As to the method: Assay B-10: Effect Against Pyrenophora teres (Helminthosporium)/Barley (Net Blotch on Barley) 1 week old barley plants cv. Regina are treated with a formulated testcompound (0.02% active substance) in a spray chamber. Two days after application barley plants are inoculated by spraying a spore suspension (3×10^4 conidia/ml) on the test plants. After an incubation period of 2 days at 20° C. and 95% r.h. plants are kept for 2 days at 20° C. and 60% r.h. in a greenhouse. The disease incidence is assessed 4 days after inoculation.

In a further assay the test system is Septoria nodorum. Description: Assay B-12: Effect against Septoria nodorum/wheat (Septoria leaf spot on wheat). To be noted: Septoria nodorum on wheat cv. Arina; 0.02% active substance, spray. As to the method:
Assay B-12: Effect Against Septoria nodorum/Wheat (Septoria Leaf Spot on Wheat) 1 week old wheat plants cv. Arina are treated with a formulated test compound (0.02% active substance) in a spray chamber. One day after application wheat plants are inoculated by spraying a spore suspension (5×10^5 conidia/ml) on the test plants. After an incubation period of 1 day at 20° C. and 95% r.h. plants are kept for 10 days at 20° C. and 60% r.h. in a greenhouse. The disease incidence is assessed 11 days after inoculation.

The test system of a further assay is Venturia inaegualis. The assay can be described thus: Assay B-5: Residual protective activity against Venturia inaegualis on apples (scab on apple). To be noted: Venturia inaegualis on apple seedlings cv. McIntosh; 0.02% active substance, spray. The method, then: Assay B-5: Residual Protective Activity Against Venturia inaegualis on Apples (Scab on Apple) 4 week old apple seedlings cv. McIntosh are treated with the formulated testcompound (0.02% active substance) in a spray chamber. One day after application apple plants are inoculated by spraying a spore suspension (4×10^5 conidia/ml) on the test plants. After an incubation period of 4 days at 21° C. and 95% r. h. the plants are placed for 4 days at 21° C. and 60% r. h. in a greenhouse. After another 4 day incubation period at 21° C. and 95% r. h. the disease incidence is assessed.

As to `CCCC(CO)Nc1cc(-c2ccnc(Nc3cccc(Cl)c3)n2)ccn1` (stereo not drawn) [Compound 27], in the assay on Botrytis cinerea [1], the B7 activity entry is “+ (the activity observed in the corresponding test system is 70% or more)”. Further, in the assay with Botrytis cinerea [2], the B8 activity result is listed as “+ (the activity observed in the corresponding test system is 70% or more)”. Also, in assay [3], the B10 activity entry was “+ (the activity observed in the corresponding test system is 70% or more)”. Moreover, the B12 activity result with Septoria nodorum is “+ (the activity observed in the corresponding test system is 70% or more)”.

Take `CC(C)(CO)Nc1cc(-c2ccnc(Nc3cccc(Cl)c3)n2)ccn1` [Compound 28]: the B5 activity entry in the assay on Venturia inaegualis was “+ (the activity observed in the corresponding test system is 70% or more)”. The B7 activity entry in the assay on Botrytis cinerea [1] is listed as “+ (the activity observed in the corresponding test system is 70% or more)”. Also, the B8 activity entry in the assay on Botrytis cinerea [2] is “+ (the activity observed in the corresponding test system is 70% or more)”. Besides, in assay [3], the B10 activity result is on record as “+ (the activity observed in the corresponding test system is 70% or more)”. For the same molecule, in the assay on Septoria nodorum, the B12 activity entry was “+ (the activity observed in the corresponding test system is 70% or more)”.

Regarding `CC(CNc1cc(-c2ccnc(Nc3cccc(Cl)c3)n2)ccn1)Cn1ccnc1` (stereo not drawn) [Compound 30], the B5 activity result with Venturia inaegualis is on record as “+ (the activity observed in the corresponding test system is 70% or more)”. In addition, in the assay with Botrytis cinerea [2], the B8 activity result is recorded as “+ (the activity observed in the corresponding test system is 70% or more)”. Besides, the B10 activity result in assay [3] was “+ (the activity observed in the corresponding test system is 70% or more)”. Further, the B12 activity entry in the assay on Septoria nodorum is “+ (the activity observed in the corresponding test system is 70% or more)”.

Consider `OCC(CO)Nc1cc(-c2ccnc(Nc3cccc(Cl)c3)n2)ccn1` [Compound 35], for which the B5 activity entry in the assay with Venturia inaegualis is on record as “+ (the activity observed in the corresponding test system is 70% or more)”. Also, the B7 activity result in the assay with Botrytis cinerea [1] is reported as “+ (the activity observed in the corresponding test system is 70% or more)”. For the same molecule, the B8 activity entry in the assay with Botrytis cinerea [2] was “+ (the activity observed in the corresponding test system is 70% or more)”. Further, in assay [3], the B10 activity entry is “+ (the activity observed in the corresponding test system is 70% or more)”.

In the case of `COCOCC(C)N(COC)c1cc(-c2ccnc(Nc3cccc(Cl)c3)n2)ccn1` (stereo not drawn) [Compound 38], the B5 activity result in the assay on Venturia inaegualis was “+ (the activity observed in the corresponding test system is 70% or more)”. In addition, the B10 activity result in assay [3] is recorded as “+ (the activity observed in the corresponding test system is 70% or more)”. Further, the B12 activity entry in the assay on Septoria nodorum is “+ (the activity observed in the corresponding test system is 70% or more)”.

As for `CCC(C)C(CO)Nc1cc(-c2ccnc(Nc3cccc(Cl)c3)n2)ccn1` (stereo not drawn) [Compound 41], the B5 activity entry in the assay on Venturia inaegualis is listed as “+ (the activity observed in the corresponding test system is 70% or more)”. In the assay on Botrytis cinerea [1], the B7 activity entry is given as “+ (the activity observed in the corresponding test system is 70% or more)”. Further, the B10 activity result in assay [3] is recorded as “+ (the activity observed in the corresponding test system is 70% or more)”.

Turning to `CS(=O)(=O)O.Clc1cccc(Nc2nccc(-c3ccnc(NCCCn4ccnc4)c3)n2)c1` [Compound 49], the B7 activity entry in the assay on Botrytis cinerea [1] is on record as “+ (the activity observed in the corresponding test system is 70% or more)”. The B8 activity entry with Botrytis cinerea [2] is listed as “+ (the activity observed in the corresponding test system is 70% or more)”. Further, in assay [3], the B10 activity result is “+ (the activity observed in the corresponding test system is 70% or more)”. Besides, the B12 activity entry with Septoria nodorum is “+ (the activity observed in the corresponding test system is 70% or more)”.

Take `CC(COc1ncccn1)Nc1cc(-c2ccnc(Nc3cccc(Cl)c3)n2)ccn1` (stereo not drawn) [Compound 95]: the B5 activity result in the assay on Venturia inaegualis was “+ (the activity observed in the corresponding test system is 70% or more)”. Also, in assay [3], the B10 activity result is on record as “+ (the activity observed in the corresponding test system is 70% or more)”. Also, the B12 activity result in the assay with Septoria nodorum is recorded as “+ (the activity observed in the corresponding test system is 70% or more)”.
